# Experiments:
# Experiment in all cases: relative viability (nuclei count vs DMSO), 5 days (fraction); higher = more cells survive
# [1] = tested on: NCI-H1395
# Outline: (§1)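 Cells from lung cancer lines were seeded into 1536-well plates and, one day later, dosed by pin tool. Treatments were either a single drug or a fixed dose of an anchor drug with five library-drug doses (not always all listed) in √10 steps. After 5 days, nuclei were stained in a one-step fixation (final 0.05% Triton X-100, 1% formaldehyde, 1 ug/ml Hoechst) and counted on 4× images, and relative viability is the treated-to-vehicle nuclei ratio, as the median of duplicate plates.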
# [2] = tested on: HARA
# Outline: as §1
# [3] = tested on: SK-LU-1
# Outline: as §1
# [4] = tested on: NCI-H1975
# Outline: as §1
# [5] = tested on: NCI-H2228
# Outline: as §1
# [6] = tested on: NCI-H1915
# Outline: as §1
# [7] = tested on: NCI-H1755
# Outline: as §1
# [8] = tested on: HCC-366
# Outline: as §1
# [9] = tested on: CAL-12T
# Outline: as §1
# [10] = tested on: HCC-827
# Outline: as §1
# [11] = tested on: EMC-BAC-2
# Outline: as §1
# [12] = tested on: NCI-H2009
# Outline: as §1
# [13] = tested on: NCI-H1355
# Outline: as §1
# [14] = tested on: NCI-H1437
# Outline: as §1
# [15] = tested on: NCI-H727
# Outline: as §1
# [16] = tested on: NCI-H1792
# Outline: as §1
# [17] = tested on: NCI-H23
# Outline: as §1
# [18] = tested on: LCLC-103H
# Outline: as §1
# [19] = tested on: COR-L 105
# Outline: as §1
# [20] = tested on: NCI-H460
# Outline: as §1
# [21] = tested on: SW 1573
# Outline: as §1
# [22] = tested on: HOP-62
# Outline: as §1
# [23] = tested on: A-427
# Outline: as §1
smiles,measurement,setting,value
NC(=O)Nc1cc(-c2cccc(F)c2)sc1C(=O)N[C@H]1CCCNC1 [AZD7762] + O=C(c1cc(Cc2n[nH]c(=O)c3ccccc23)ccc1F)N1CCN(C(=O)C2CC2)CC1 [Olaparib] (partner 8 µM),relative viability,[1]; first compound 0.01 µM,0.505
same,relative viability,[1]; first compound 0.03162 µM,0.415
same,relative viability,[1]; first compound 0.1 µM,0.393
same,relative viability,[1]; first compound 0.3162 µM,0.387
same,relative viability,[1]; first compound 1 µM,0.354
same,relative viability,[2]; first compound 0.01 µM,0.768
same,relative viability,[2]; first compound 0.03162 µM,0.759
same,relative viability,[2]; first compound 0.1 µM,0.507
same,relative viability,[2]; first compound 0.3162 µM,0.301
same,relative viability,[2]; first compound 1 µM,0.229
same,relative viability,[3]; first compound 0.01 µM,0.477
same,relative viability,[3]; first compound 0.03162 µM,0.389
same,relative viability,[3]; first compound 0.1 µM,0.306
same,relative viability,[3]; first compound 0.3162 µM,0.244
same,relative viability,[3]; first compound 1 µM,0.186
same,relative viability,[4]; first compound 0.01 µM,0.767
same,relative viability,[4]; first compound 0.03162 µM,0.682
same,relative viability,[4]; first compound 0.1 µM,0.638
same,relative viability,[4]; first compound 0.3162 µM,0.538
same,relative viability,[4]; first compound 1 µM,0.401
same,relative viability,[5]; first compound 0.01 µM,0.659
same,relative viability,[5]; first compound 0.03162 µM,0.778
same,relative viability,[5]; first compound 0.1 µM,0.637
same,relative viability,[5]; first compound 0.3162 µM,0.311
same,relative viability,[5]; first compound 1 µM,0.193
same,relative viability,[6]; first compound 0.01 µM,0.275
same,relative viability,[6]; first compound 0.03162 µM,0.308
same,relative viability,[6]; first compound 0.1 µM,0.272
same,relative viability,[6]; first compound 0.3162 µM,0.209
same,relative viability,[6]; first compound 1 µM,0.189
same,relative viability,[7]; first compound 0.01 µM,1.01
same,relative viability,[7]; first compound 0.03162 µM,0.92
same,relative viability,[7]; first compound 0.1 µM,0.957
same,relative viability,[7]; first compound 0.3162 µM,0.855
same,relative viability,[7]; first compound 1 µM,0.619
same,relative viability,[8]; first compound 0.01 µM,0.364
same,relative viability,[8]; first compound 0.03162 µM,0.305
same,relative viability,[8]; first compound 0.1 µM,0.278
same,relative viability,[8]; first compound 0.3162 µM,0.157
same,relative viability,[8]; first compound 1 µM,0.0818
same,relative viability,[9]; first compound 0.01 µM,0.908
same,relative viability,[9]; first compound 0.03162 µM,0.756
same,relative viability,[9]; first compound 0.1 µM,0.865
same,relative viability,[9]; first compound 0.3162 µM,0.489
same,relative viability,[9]; first compound 1 µM,0.2
same,relative viability,[10]; first compound 0.01 µM,0.654
same,relative viability,[10]; first compound 0.03162 µM,0.678
same,relative viability,[10]; first compound 0.1 µM,0.64
same,relative viability,[10]; first compound 0.3162 µM,0.267
same,relative viability,[10]; first compound 1 µM,0.288
same,relative viability,[11]; first compound 0.01 µM,0.612
same,relative viability,[11]; first compound 0.03162 µM,0.628
same,relative viability,[11]; first compound 0.1 µM,0.626
same,relative viability,[11]; first compound 0.3162 µM,0.64
same,relative viability,[11]; first compound 1 µM,0.547
same,relative viability,[12]; first compound 0.01 µM,0.719
same,relative viability,[12]; first compound 0.03162 µM,0.726
same,relative viability,[12]; first compound 0.1 µM,0.747
same,relative viability,[12]; first compound 0.3162 µM,0.521
same,relative viability,[12]; first compound 1 µM,0.34
same,relative viability,[13]; first compound 0.01 µM,0.705
same,relative viability,[13]; first compound 0.03162 µM,0.798
same,relative viability,[13]; first compound 0.1 µM,0.862
same,relative viability,[13]; first compound 0.3162 µM,0.862
same,relative viability,[13]; first compound 1 µM,0.615
same,relative viability,[14]; first compound 0.01 µM,0.696
same,relative viability,[14]; first compound 0.03162 µM,0.648
same,relative viability,[14]; first compound 0.1 µM,0.621
same,relative viability,[14]; first compound 0.3162 µM,0.612
same,relative viability,[14]; first compound 1 µM,0.433
same,relative viability,[15]; first compound 0.01 µM,0.735
same,relative viability,[15]; first compound 0.03162 µM,0.723
same,relative viability,[15]; first compound 0.1 µM,0.931
same,relative viability,[15]; first compound 0.3162 µM,0.717
same,relative viability,[15]; first compound 1 µM,0.543
same,relative viability,[16]; first compound 0.01 µM,0.336
same,relative viability,[16]; first compound 0.03162 µM,0.421
same,relative viability,[16]; first compound 0.1 µM,0.364
same,relative viability,[16]; first compound 0.3162 µM,0.352
same,relative viability,[16]; first compound 1 µM,0.221
same,relative viability,[17]; first compound 0.01 µM,0.311
same,relative viability,[17]; first compound 0.03162 µM,0.287
same,relative viability,[17]; first compound 0.1 µM,0.255
same,relative viability,[17]; first compound 0.3162 µM,0.222
same,relative viability,[17]; first compound 1 µM,0.168
same,relative viability,[18]; first compound 0.01 µM,0.827
same,relative viability,[18]; first compound 0.03162 µM,0.705
same,relative viability,[18]; first compound 0.1 µM,0.733
same,relative viability,[18]; first compound 0.3162 µM,0.772
same,relative viability,[18]; first compound 1 µM,0.714
same,relative viability,[19]; first compound 0.01 µM,0.699
same,relative viability,[19]; first compound 0.03162 µM,0.643
same,relative viability,[19]; first compound 0.1 µM,0.529
same,relative viability,[19]; first compound 0.3162 µM,0.542
same,relative viability,[19]; first compound 1 µM,0.516
same,relative viability,[20]; first compound 0.01 µM,0.441
same,relative viability,[20]; first compound 0.03162 µM,0.35
same,relative viability,[20]; first compound 0.1 µM,0.261
same,relative viability,[20]; first compound 0.3162 µM,0.132
same,relative viability,[20]; first compound 1 µM,0.0653
same,relative viability,[21]; first compound 0.01 µM,0.453
same,relative viability,[21]; first compound 0.03162 µM,0.526
same,relative viability,[21]; first compound 0.1 µM,0.403
same,relative viability,[21]; first compound 0.3162 µM,0.408
same,relative viability,[21]; first compound 1 µM,0.221
same,relative viability,[22]; first compound 0.01 µM,0.541
same,relative viability,[22]; first compound 0.03162 µM,0.239
same,relative viability,[22]; first compound 0.1 µM,0.313
same,relative viability,[22]; first compound 0.3162 µM,0.297
same,relative viability,[22]; first compound 1 µM,0.136
same,relative viability,[23]; first compound 0.01 µM,0.865
same,relative viability,[23]; first compound 0.03162 µM,0.767
same,relative viability,[23]; first compound 0.1 µM,0.78
same,relative viability,[23]; first compound 0.3162 µM,0.733
same,relative viability,[23]; first compound 1 µM,0.379
